≈ marks a conversion by molar mass, not a printed value. Where “and” joins values, the source holds several entries; their conditions need not be identical. Identical values can stand only once. Like-named read-outs stand apart in the source and are kept apart here. Residues, ends and D or L forms follow the SMILES beside them.
How the values were obtained:
[1] = test system: A. baumannii ATCC 19606; type: cell-based, Acinetobacter baumannii
Experimental: (§1) MICs were determined in cation-adjusted Mueller–Hinton broth (CaMHB) by the broth micro-dilution method against ATCC strains and clinical isolates. MICs in the presence of Survanta® were determined as described above against P. aeruginosa ATCC 27853. In the 100 μL of fresh CaMHB containing polymyxins, 10% Survanta® (v/v, 2.5 mg/mL phospholipids) was added. MICs in the presence and absence of Survanta® were compared to determine the effect of binding to lung surfactant on the antibacterial activity of polymyxins.

[2] = test system: A. baumannii FADDI-AB030; type: cell-based, Acinetobacter baumannii
Experimental: as §1

[3] = test system: A. baumannii FADDI-AB034; type: cell-based, Acinetobacter baumannii
Experimental: as §1

[4] = test system: K. pneumoniae FADDI-KP032; type: cell-based, Klebsiella pneumoniae
Experimental: as §1

[5] = test system: K. pneumoniae FADDI-KP065; type: cell-based, Klebsiella pneumoniae
Experimental: as §1

[6] = test system: P. aeruginosa ATCC 27853; experiment: Neutropenic mouse bloodstream infection model; type: in vivo; details: single IV dose 4 mg/kg; for Log10 CFU/mL blood at 4 h, Mean / Δlog10 CFU/mL blood (mean) / Log10 CFU/mL blood at 4 h, single mouse: 4 h; for Δlog10 CFU/mL blood (mean): treated minus control, mean of replicates; for Δlog10 CFU/mL blood (mean) / Log10 CFU/mL blood at 4 h, single mouse / Delta Log10 CFU/mL blood at 4 h, single mouse: 4 mg/kg; for Delta Log10 CFU/mL blood at 4 h, single mouse: treated mouse minus mean of vehicle mice
Experimental: The experimental methodology for the neutropenic mouse bloodstream infection model was described previously. Briefly, 7-week-old female Swiss mice (22–28 g) were rendered neutropenic by intraperitoneal administration of cyclophosphamide, 4 days (150 mg/kg) and 1 day (100 mg/kg) prior to inoculation. Bloodstream infection was established by intravenous administration of a 50 µL bolus of early log-phase bacterial suspension (4 × 10^8 CFU/mL). Lipopeptide solutions were prepared at 1 mg/mL (free base) in sterile saline. At 2 h after inoculation, mice (n = 3) were injected intravenously with lipopeptide solution at 4 mg/kg (free base) or saline control. At 0 and 4 h after administration, blood was collected, diluted serially in sterile saline, and plated on nutrient agar plates. Agar plates were incubated at 37 °C overnight for bacterial colony counting and the bacterial load in the blood (log10 CFU/mL) in each mouse was calculated. In vivo efficacy was calculated as the difference of the log10 CFU/mL blood values between the treated mice and the saline-treated mice at 4 h post dosing (Δlog10 CFU/mL blood = log10 [treated] CFU/mL blood − log10[control] CFU/mL blood).

[7] = test system: P. aeruginosa FADDI-PA038; type: cell-based, Pseudomonas aeruginosa
Experimental: as §1

[8] = test system: P. aeruginosa FADDI-PA025; type: cell-based, Pseudomonas aeruginosa
Experimental: as §1

[9] = test system: P. aeruginosa ATCC 27853; type: cell-based, Pseudomonas aeruginosa
Experimental: as §1

[10] = test system: Swiss mice, kidney; experiment: Nephrotoxicity in mice (kidney histopathology); type: in vivo, mouse; details: for Kidney histopathology (SQS Score): 72 mg/kg/d subcutaneously in six divided doses every 2 h, n = 3; for Kidney histopathology, mice with the SQS score: mouse, in vivo
Experimental: The experimental methodology has been previously reported by our group. Briefly, individual lipopeptide solutions were prepared in sterile saline (6 mg/mL). Swiss mice (female, 7-week-old, 22–28 g) were subcutaneously administered at 12 mg/kg in, 6 doses every 2 h to reach a total dose of 72 mg/kg (n = 3). For high-dose nephrotoxicity experiments, mice were intraperitoneally administered at 20 or 25 mg/kg, in 6 doses every 2 h to reach a total dose of 120 mg/kg (n = 6) or 150 mg/kg (n = 3). At 20 h after the last dose, the right kidney from each mouse was collected and placed in 10% buffered (pH 7.4) formalin (Sigma-Aldrich, Castle Hill, NSW, Australia). The kidneys were subjected to histological examination at the Australian Phenomics Network-Histopathology and Organ Pathology (University of Melbourne, Parkville, VIC, Australia), who was blind to the treatment groups.

| SMILES | MIC A. baumannii ATCC 19606 ([1]; ATCC 19606) [µg/mL] | MIC A. baumannii FADDI-AB030 ([2]; FADDI-AB030) [µg/mL] | MIC A. baumannii FADDI-AB034 ([3]; FADDI-AB034) [µg/mL] | MIC K. pneumoniae FADDI-KP032 ([4]; FADDI-KP032) [µg/mL] | MIC K. pneumoniae FADDI-KP065 ([5]; FADDI-KP065) [µg/mL] | MIC P. aeruginosa FADDI-PA038 ([7]; FADDI-PA038) [µg/mL] | MIC P. aeruginosa FADDI-PA025 ([8]; FADDI-PA025) [µg/mL] | MIC P. aeruginosa ATCC 27853 ([9]; ATCC 27853) [µg/mL] | Log10 CFU/mL blood at 4 h, Mean [6] [Log10 CFU/mL blood] | Δlog10 CFU/mL blood (mean) [6] [log10 CFU/mL blood] | Log10 CFU/mL blood at 4 h, single mouse [6] | Delta Log10 CFU/mL blood at 4 h, single mouse [6] | Kidney histopathology (SQS Score) [10] | Kidney histopathology, mice with the SQS score [10] | also measured |
| --- | --- | --- | --- | --- | --- | --- | --- | --- | --- | --- | --- | --- | --- | --- | --- |
| CCCCCCCC(=O)N[C@@H](CCN)C(=O)N[C@H](C(=O)N[C@H](CCN)C(=O)N[C@H]1CCNC(=O)[C@H]([C@@H](C)O)NC(=O)[C@H](CCN)NC(=O)[C@H](CCN)NC(=O)[C@H]([C@@H](C)O)NC(=O)[C@@H](CC(C)C)NC(=O)[C@H](CCN)NC1=O)[C@@H](C)O [Lipopeptide F085] (HELM PEPTIDE1{[CCCCCCCC(=O)[*:2]].[Dab].T.[NCC[C@@H](N[*:1])C(=O)[*:2]].[Dab].[Dab].[dL].T.[Dab].[Dab].T}$PEPTIDE1,PEPTIDE1,5:R3-11:R2$$$V2.0) | 1 (≈ 0.875 µM) | 0.25 (≈ 0.219 µM) | 2 (≈ 1.75 µM) | 0.25 (≈ 0.219 µM) | <0.125 | 0.5 (≈ 0.437 µM) | 8 (≈ 7 µM) | 0.5 (≈ 0.437 µM) | 2.97 | −2.16 | 3.39 Log10 CFU/mL blood and 3.30 Log10 CFU/mL blood and 2.20 Log10 CFU/mL blood | -1.73 Log10 CFU/mL blood and -1.83 Log10 CFU/mL blood and -2.92 Log10 CFU/mL blood | +2 (SQS + 2 = mild to moderate damage (overall score, 15 to <30)) | 2/2 |  |
| CCCCCCCC(=O)N[C@@H](CCN)C(=O)N[C@H](C(=O)N[C@@H](CCN)C(=O)N[C@H]1CCNC(=O)[C@H]([C@@H](C)O)NC(=O)[C@H](CCN)NC(=O)[C@H](CCN)NC(=O)[C@H]([C@@H](C)O)NC(=O)[C@@H](CC(C)C)NC(=O)[C@H](CCN)NC1=O)[C@@H](C)O [Lipopeptide F100] (HELM PEPTIDE1{[CCCCCCCC(=O)[*:2]].[Dab].T.[Dab].[Dab].[Dab].[dL].T.[Dab].[Dab].T}$PEPTIDE1,PEPTIDE1,5:R3-11:R2$$$V2.0) | 4 (≈ 3.5 µM) | 1 (≈ 0.875 µM) | 2 (≈ 1.75 µM) | 0.25 (≈ 0.219 µM) | <0.125 | 0.5 (≈ 0.437 µM) | >32 | 0.5 (≈ 0.437 µM) | 4.44 | −3.01 | 4.50 Log10 CFU/mL blood and 4.28 Log10 CFU/mL blood and 4.53 Log10 CFU/mL blood | -2.95 Log10 CFU/mL blood and -3.17 Log10 CFU/mL blood and -2.91 Log10 CFU/mL blood | 0 (SQS 0 = no significant change (overall score, <1)) | 3/3 |  |
| CCCCCCCC(=O)N[C@@H](CCN)C(=O)N[C@H](C(=O)N[C@H](CO)C(=O)N[C@H]1CCNC(=O)[C@H]([C@@H](C)O)NC(=O)[C@H](CCN)NC(=O)[C@H](CCN)NC(=O)[C@H]([C@@H](C)O)NC(=O)[C@@H](CC(C)C)NC(=O)[C@H](CCN)NC1=O)[C@@H](C)O [Lipopeptide F183] (HELM PEPTIDE1{[CCCCCCCC(=O)[*:2]].[Dab].T.[dS].[Dab].[Dab].[dL].T.[Dab].[Dab].T}$PEPTIDE1,PEPTIDE1,5:R3-11:R2$$$V2.0) | 1 (≈ 0.885 µM) | <0.125 | 0.25 (≈ 0.221 µM) | <0.125 | 0.25 (≈ 0.221 µM) | 4 (≈ 3.54 µM) | >32 | 4 (≈ 3.54 µM) |  |  |  |  | 0 (SQS 0 = no significant change (overall score, <1)) | 3/3 | MIC, No Survanta ([9]; ATCC 27853): 4 µg/mL (≈ 3.54 µM) |
| CC[C@@H]1NC(=O)[C@@H](CC(C)C)NC(=O)[C@H](CCN)NC(=O)[C@@H](NC(=O)[C@H](CN)NC(=O)[C@@H](NC(=O)[C@H](CCN)NC(=O)c2ccccc2Cl)[C@@H](C)O)CCNC(=O)[C@H]([C@@H](C)O)NC(=O)[C@H](CCN)NC(=O)[C@H](CCN)NC1=O [Lipopeptide F350] (HELM PEPTIDE1{[O=C(c1ccccc1Cl)[*:2]].[Dab].T.[NC[C@H](N[*:1])C(=O)[*:2]].[Dab].[Dab].[dL].[Abu].[Dab].[Dab].T}$PEPTIDE1,PEPTIDE1,5:R3-11:R2$$$V2.0; bridges inferred) |  |  |  |  |  |  |  |  |  |  |  |  |  |  | MIC A. baumannii ATCC 19606 [1]: 8 µg/mL (≈ 7.11 µM); MIC A. baumannii FADDI-AB030 ([2]; carbapenem-resistant isolate): 4 µg/mL (≈ 3.55 µM); MIC A. baumannii FADDI-AB034 ([3]; carbapenem-resistant isolate): 4 µg/mL (≈ 3.55 µM); MIC K. pneumoniae FADDI-KP032 ([4]; carbapenem-resistant isolate): 1 µg/mL (≈ 0.888 µM); MIC K. pneumoniae FADDI-KP065 ([5]; carbapenem-resistant isolate): 0.5 µg/mL (≈ 0.444 µM); MIC P. aeruginosa FADDI-PA038 ([7]; carbapenem-resistant isolate): 2 µg/mL (≈ 1.78 µM); MIC P. aeruginosa FADDI-PA025 ([8]; MDR clinical isolate): 4 µg/mL (≈ 3.55 µM); MIC P. aeruginosa ATCC 27853 [9]: 0.5 µg/mL (≈ 0.444 µM); MIC, 10% Survanta ([9]; P. aeruginosa ATCC 27853, 10% Survanta): 0.5 µg/mL (≈ 0.444 µM); MIC, No Survanta ([9]; P. aeruginosa ATCC 27853, no surfactant): 0.5 µg/mL (≈ 0.444 µM) |

The next lines start with results.

| MIC A. baumannii ATCC 19606 ([1]; ATCC 19606) [µg/mL] | MIC A. baumannii FADDI-AB030 ([2]; FADDI-AB030) [µg/mL] | MIC A. baumannii FADDI-AB034 ([3]; FADDI-AB034) [µg/mL] | MIC K. pneumoniae FADDI-KP032 ([4]; FADDI-KP032) [µg/mL] | MIC K. pneumoniae FADDI-KP065 ([5]; FADDI-KP065) [µg/mL] | MIC P. aeruginosa FADDI-PA038 ([7]; FADDI-PA038) [µg/mL] | MIC P. aeruginosa FADDI-PA025 ([8]; FADDI-PA025) [µg/mL] | MIC P. aeruginosa ATCC 27853 ([9]; ATCC 27853) [µg/mL] | SMILES | Log10 CFU/mL blood at 4 h, Mean [6] [Log10 CFU/mL blood] | Δlog10 CFU/mL blood (mean) [6] [log10 CFU/mL blood] | Log10 CFU/mL blood at 4 h, single mouse [6] | Delta Log10 CFU/mL blood at 4 h, single mouse [6] | Kidney histopathology (SQS Score) [10] | Kidney histopathology, mice with the SQS score [10] | also measured |
| --- | --- | --- | --- | --- | --- | --- | --- | --- | --- | --- | --- | --- | --- | --- | --- |
| >32 | 32 (≈ 28.3 µM) | >32 | 1 (≈ 0.885 µM) | 2 (≈ 1.77 µM) | >32 | >32 | >32 | CCCCCCCC(=O)N[C@@H](CCN)C(=O)N[C@H](C(=O)N[C@@H](CCN)C(=O)N[C@H]1CCNC(=O)[C@H]([C@@H](C)O)NC(=O)[C@H](CCN)NC(=O)[C@H](CCN)NC(=O)[C@H]([C@@H](C)O)NC(=O)[C@@H](C(C)C)NC(=O)[C@H](CCN)NC1=O)[C@@H](C)O [Lipopeptide F229] (HELM PEPTIDE1{[CCCCCCCC(=O)[*:2]].[Dab].T.[Dab].[Dab].[Dab].[dV].T.[Dab].[Dab].T}$PEPTIDE1,PEPTIDE1,5:R3-11:R2$$$V2.0) |  |  |  |  | 0 (SQS 0 = no significant change (overall score, <1)) | 3/3 |  |
| >32 | >32 | >32 | 16 (≈ 14.1 µM) | 32 (≈ 28.3 µM) | >32 | >32 | >32 | CCCCCCCC(=O)N[C@@H](CCN)C(=O)N[C@H](C(=O)N[C@@H](CCN)C(=O)N[C@H]1CCNC(=O)[C@H]([C@@H](C)O)NC(=O)[C@H](CCN)NC(=O)[C@H](CCN)NC(=O)[C@H]([C@@H](C)O)NC(=O)[C@@H]([C@H](C)O)NC(=O)[C@H](CCN)NC1=O)[C@@H](C)O [Lipopeptide F230] (HELM PEPTIDE1{[CCCCCCCC(=O)[*:2]].[Dab].T.[Dab].[Dab].[Dab].[dT].T.[Dab].[Dab].T}$PEPTIDE1,PEPTIDE1,5:R3-11:R2$$$V2.0) |  |  |  |  | 0 (SQS 0 = no significant change (overall score, <1)) | 3/3 |  |
